Converted amounts (≈) assume the structure as drawn. The source made the active and inactive calls. The rule behind the calls is not given here.
Legend:
Escherichia coli [1] = assay: Ratio of MIC for Escherichia coli ERR2a selected to MIC for Escherichia coli NIHJ; assay type: functional
Escherichia coli [2] = assay: Ratio of MIC for Escherichia coli EIR2a to MIC for Escherichia coli NIHJ; assay type: functional
[3] = Displacement of [14C]benzylpenicillin from PBP4 in Escherichia coli NIHJ
Staphylococcus aureus [4] = assay: Antibacterial activity against methicillin-resistant Staphylococcus aureus by microdilution method; assay type: functional
[5] = Displacement of [14C]benzylpenicillin from PBP1 in Staphylococcus aureus ATCC 6538P
Escherichia coli [6] = assay: Ratio of MIC for Escherichia coli EIR4b to MIC for Escherichia coli NIHJ; assay type: functional
Escherichia coli [7] = assay: Ratio of MIC for Escherichia coli ERR4a to MIC for Escherichia coli NIHJ; assay type: functional
Escherichia coli [8] = assay: Antibacterial activity against Escherichia coli ERR2a selected at 2 times MIC of tomopenem by microdilution method; assay type: functional
Staphylococcus aureus [9] = assay: Antibacterial activity against Staphylococcus aureus ATCC 6538P by microdilution method; assay type: functional, organism-based
Staphylococcus aureus [10] = assay: Ratio of MIC for Staphylococcus aureus SRR2a to MIC for Staphylococcus aureus ATCC 6538P; assay type: functional
Pseudomonas aeruginosa [11] = assay: Ratio of MIC for Pseudomonas aeruginosa PMR2a to MIC for Pseudomonas aeruginosa ATCC 15692; assay type: functional
Pseudomonas aeruginosa [12] = assay: Antibacterial activity against Pseudomonas aeruginosa ATCC 15692 assessed as fold decrease in compound susceptibility after 10 passages relative to control; assay type: functional
Staphylococcus aureus [13] = assay: Antibacterial activity against Staphylococcus aureus ATCC 6538P assessed as fold decrease in compound susceptibility after 10 passages relative to control; assay type: functional
[14] = Displacement of [14C]benzylpenicillin from PBP2 Staphylococcus aureus ATCC 6538P
[15] = Displacement of [14C]benzylpenicillin from PBP2 in Pseudomonas aeruginosa ATCC 15692
[16] = Displacement of [14C]benzylpenicillin from PBP1A in Escherichia coli NIHJ
[17] = Displacement of [14C]benzylpenicillin from PBP5 in Escherichia coli NIHJ
Staphylococcus aureus [18] = assay: Ratio of MIC for Staphylococcus aureus SMR2a to MIC for Staphylococcus aureus ATCC 6538P; assay type: functional
Escherichia coli [19] = assay: Ratio of MIC for Escherichia coli ERR8a to MIC for Escherichia coli NIHJ; assay type: functional
Escherichia coli [20] = assay: Antibacterial activity against Escherichia coli EIR2b selected at 2 times MIC of imipenem by microdilution method; assay type: functional
Escherichia coli [21] = assay: Antibacterial activity against Escherichia coli NIHJ by microdilution method; assay type: functional, organism-based
[22] = Displacement of [14C]benzylpenicillin from PBP 5 in Pseudomonas aeruginosa ATCC 15692
Escherichia coli [23] = assay: Antibacterial activity against Escherichia coli NIHJ assessed as appearance of swollen cells at 1/8 times MIC by Scanning electron microscopy; assay type: functional, organism-based
[24] = Displacement of [14C]benzylpenicillin from PBP2 in Escherichia coli NIHJ
[25] = Displacement of [14C]benzylpenicillin from PBP3 in Escherichia coli NIHJ
[26] = Displacement of [14C]benzylpenicillin from PBP1A in Pseudomonas aeruginosa ATCC 15692
Escherichia coli [27] = assay: Antibacterial activity against Escherichia coli ERR8a selected at 8 times MIC of tomopenem by microdilution method; assay type: functional
Escherichia coli [28] = assay: Antibacterial activity against Escherichia coli ERR4a selected at 4 times MIC of tomopenem by microdilution method; assay type: functional
Staphylococcus aureus [29] = assay: Antibacterial activity against Staphylococcus aureus SMR2a selected at 2 times MIC of meropenem by microdilution method; assay type: functional
Pseudomonas aeruginosa [30] = assay: Antibacterial activity against Pseudomonas aeruginosa PRR4a selected at 4 times MIC of tomopenem by microdilution method; assay type: functional
[31] = Displacement of [14C]benzylpenicillin from PBP1B in Pseudomonas aeruginosa ATCC 15692
Escherichia coli [32] = assay: Ratio of MIC for Escherichia coli EIR2b to MIC for Escherichia coli NIHJ; assay type: functional
Escherichia coli [33] = assay: Ratio of MIC for Escherichia coli ERR2b to MIC for Escherichia coli NIHJ; assay type: functional
[34] = Displacement of [14C]benzylpenicillin from PBP 6 in Pseudomonas aeruginosa ATCC 15692
[35] = Displacement of [14C]benzylpenicillin from PBP6 Escherichia coli NIHJ
Staphylococcus aureus [36] = assay: Ratio of MIC for Staphylococcus aureus SMR4a to MIC for Staphylococcus aureus ATCC 6538P; assay type: functional
Escherichia coli [37] = assay: Ratio of MIC for Escherichia coli EIR4a to MIC for Escherichia coli NIHJ; assay type: functional
[38] = Displacement of [14C]benzylpenicillin from PBP1B in Escherichia coli NIHJ
Escherichia coli [39] = assay: Antibacterial activity against Escherichia coli NIHJ assessed as appearance of spherical and bulge cells at 8 times MIC by Scanning electron microscopy; assay type: functional, organism-based
Escherichia coli [40] = assay: Ratio of MIC for Escherichia coli EIR8a to MIC for Escherichia coli NIHJ; assay type: functional
Staphylococcus aureus [41] = assay: Antibacterial activity against Staphylococcus aureus SIR2a selected at 2 times MIC of imipenem by microdilution method; assay type: functional
Pseudomonas aeruginosa [42] = assay: Ratio of MIC for Pseudomonas aeruginosa PRR4a to MIC for Pseudomonas aeruginosa ATCC 15692; assay type: functional
Staphylococcus aureus [43] = assay: Antibacterial activity against Staphylococcus aureus SRR2a selected at 2 times MIC of tomopenem by microdilution method; assay type: functional
Escherichia coli [44] = assay: Antibacterial activity against Escherichia coli EIR2a selected at 2 times MIC of imipenem by microdilution method; assay type: functional
Pseudomonas aeruginosa [45] = assay: Antibacterial activity against Pseudomonas aeruginosa ATCC 15692 by microdilution method; assay type: functional, organism-based
Pseudomonas aeruginosa [46] = assay: Antibacterial activity against Pseudomonas aeruginosa PIR2a selected at 2 times MIC of imipenem by microdilution method; assay type: functional
[47] = Displacement of [14C]benzylpenicillin from PBP4 in Staphylococcus aureus ATCC 6538P
Staphylococcus aureus [48] = assay: Antibacterial activity against methicillin-sensitive Staphylococcus aureus by microdilution method; assay type: functional
[49] = Displacement of [14C]benzylpenicillin from PBP4 in Pseudomonas aeruginosa ATCC 15692
Escherichia coli [50] = assay: Antibacterial activity against Escherichia coli EIR8a selected at 8 times MIC of imipenem by microdilution method; assay type: functional
Escherichia coli [51] = assay: Antibacterial activity against Escherichia coli EIR4a selected at 4 times MIC of imipenem by microdilution method; assay type: functional
Pseudomonas aeruginosa [52] = assay: Antibacterial activity against Pseudomonas aeruginosa ATCC 15692 assessed as filamentation of cells at 0.125 times MIC by scanning electron microscopy; assay type: functional, organism-based
Escherichia coli [53] = assay: Ratio of MIC for Escherichia coli EMR2a to MIC for Escherichia coli NIHJ; assay type: functional
Pseudomonas aeruginosa [54] = assay: Antibacterial activity against Pseudomonas aeruginosa PMR2a selected at 2 times MIC of meropenem by microdilution method; assay type: functional
Pseudomonas aeruginosa [55] = assay: Antibacterial activity against Pseudomonas aeruginosa ATCC 15692 assessed as appearance of bulge cells at MIC by Scanning electron microscopy; assay type: functional, organism-based
Escherichia coli [56] = assay: Antibacterial activity against Escherichia coli ERR2b selected at 2 times MIC of tomopenem by microdilution method; assay type: functional
Escherichia coli [57] = assay: Antibacterial activity against Escherichia coli EMR2a selected at 2 times MIC of meropenem by microdilution method; assay type: functional
Escherichia coli [58] = assay: Antibacterial activity against Escherichia coli EIR4b selected at 4 times MIC of imipenem by microdilution method; assay type: functional
[59] = Displacement of [14C]benzylpenicillin from PBP3 in Staphylococcus aureus ATCC 6538P
Pseudomonas aeruginosa [60] = assay: Ratio of MIC for Pseudomonas aeruginosa PIR2a to MIC for Pseudomonas aeruginosa ATCC 15692; assay type: functional
Staphylococcus aureus [61] = assay: Ratio of MIC for Staphylococcus aureus SIR2a selected at 2 times MIC of imipenem to MIC for Staphylococcus aureus ATCC 6538P; assay type: functional
[62] = Displacement of [14C]benzylpenicillin from PBP3 in Pseudomonas aeruginosa ATCC 15692
Staphylococcus aureus [63] = assay: Antibacterial activity against Staphylococcus aureus SMR4a […] MIC of meropenem by microdilution method; assay type: functional

With `C[C@@H](O)[C@H]1C(=O)N2C(C(=O)O)=C(S[C@H]3C[C@@H](C(=O)N4CC[C@H](NC(=O)CNC(=N)N)C4)N(C)C3)[C@H](C)[C@H]12` [TOMOPENEM] the Ratio MIC (Escherichia coli [1]) was 4, the Ratio MIC (Escherichia coli [2]) was 2 and the IC50 [3] was > 32 µg/mL. The MIC50 (Staphylococcus aureus [4]) was 4 µg/mL (≈ 7.44 µM), the MIC90 (Staphylococcus aureus [4]) was 8 µg/mL (≈ 14.9 µM) and the IC50 [5] was 0.16 µg/mL (≈ 0.298 µM). It also gave a Ratio MIC (Escherichia coli [6]) of 2, a Ratio MIC (Escherichia coli [7]) of 4 and an MIC (Escherichia coli [8]) of 0.12 µg/mL. It also gave an IC50 (Staphylococcus aureus [9]) of 0.06 µg/mL (≈ 0.112 µM), an MBC (Staphylococcus aureus [9]) of 0.06 µg/mL (≈ 0.112 µM) and an MIC (Staphylococcus aureus [9]) of 0.06 µg/mL (≈ 0.112 µM). The Ratio MIC (Staphylococcus aureus [10]) was 4, the Ratio MIC (Pseudomonas aeruginosa [11]) was 8 and the “fold change (FC)” value (Pseudomonas aeruginosa [12]) was 8. For the same compound, the “fold change (FC)” value (Staphylococcus aureus [13]) was 2, the IC50 [14] was 0.21 µg/mL (≈ 0.391 µM) and the IC50 [15] was 0.011 µg/mL (≈ 0.0205 µM). The IC50 [16] was 1.2 µg/mL (≈ 2.23 µM), the IC50 [17] was 5.7 µg/mL (≈ 10.6 µM) and the Ratio MIC (Staphylococcus aureus [18]) was 4. The Ratio MIC (Escherichia coli [19]) was 4, the MIC (Escherichia coli [20]) was 0.06 µg/mL and the MBC (Escherichia coli [21]) was 0.03 µg/mL (≈ 0.0558 µM). For the same compound, the MIC (Escherichia coli [21]) was 0.03 µg/mL (≈ 0.0558 µM), the IC50 [22] was 5 µg/mL (≈ 9.3 µM) and the Activity (Escherichia coli [23]) was “Active”. It also gave an IC50 [24] of 0.017 µg/mL (≈ 0.0316 µM), an IC50 [25] of 0.71 µg/mL (≈ 1.32 µM) and an IC50 [26] of 0.061 µg/mL (≈ 0.113 µM). The MIC (Escherichia coli [27]) was 0.12 µg/mL, the MIC (Escherichia coli [28]) was 0.12 µg/mL and the MIC (Staphylococcus aureus [29]) was 0.25 µg/mL. For the same compound, the MIC (Pseudomonas aeruginosa [30]) was 8 µg/mL, the IC50 [31] was 0.053 µg/mL (≈ 0.0986 µM) and the Ratio MIC (Escherichia coli [32]) was 2. The Ratio MIC (Escherichia coli [33]) was 4, the IC50 [34] was 5 µg/mL (≈ 9.3 µM) and the IC50 [35] was 31 µg/mL (≈ 57.7 µM). For the same compound, the ratio (Staphylococcus aureus [36]) was 8, the Ratio MIC (Escherichia coli [37]) was 2 and the IC50 [38] was 1.3 µg/mL (≈ 2.42 µM). For the same compound, the Activity (Escherichia coli [39]) was “Active”, the Ratio MIC (Escherichia coli [40]) was 2 and the MIC (Staphylococcus aureus [41]) was 0.25 µg/mL. It also gave a Ratio MIC (Pseudomonas aeruginosa [42]) of 32, an MIC (Staphylococcus aureus [43]) of 0.25 µg/mL and an MIC (Escherichia coli [44]) of 0.06 µg/mL. The MBC (Pseudomonas aeruginosa [45]) was 0.5 µg/mL (≈ 0.93 µM), the MIC (Pseudomonas aeruginosa [45]) was 0.5 µg/mL (≈ 0.93 µM) and the MIC (Pseudomonas aeruginosa [46]) was 2 µg/mL. For the same compound, the IC50 [47] was 0.094 µg/mL (≈ 0.175 µM), the MIC50 (Staphylococcus aureus [48]) was 0.12 µg/mL (≈ 0.223 µM) and the MIC90 (Staphylococcus aureus [48]) was 0.12 µg/mL (≈ 0.223 µM). The IC50 [49] was 3.5 ng/mL (≈ 0.00651 µM), the MIC (Escherichia coli [50]) was 0.06 µg/mL and the MIC (Escherichia coli [51]) was 0.06 µg/mL. For the same compound, the Activity (Pseudomonas aeruginosa [52]) was “Active”, the Ratio MIC (Escherichia coli [53]) was 2 and the MIC (Pseudomonas aeruginosa [54]) was 2 µg/mL. The Activity (Pseudomonas aeruginosa [55]) was “Active”, the MIC (Escherichia coli [56]) was 0.12 µg/mL and the MIC (Escherichia coli [57]) was 0.06 µg/mL. The MIC (Escherichia coli [58]) was 0.06 µg/mL, the IC50 [59] was > 32 µg/mL and the Ratio MIC (Pseudomonas aeruginosa [60]) was 8. For the same compound, the Ratio MIC (Staphylococcus aureus [61]) was 4, the IC50 [62] was 0.011 µg/mL (≈ 0.0205 µM) and the MIC (Staphylococcus aureus [63]) was 0.5 µg/mL.
